# Experimental data as given in ChEMBL document CHEMBL3885861, “Open TG-GATES”.
# Organism: Rattus norvegicus
# Experiment: Open TG-GATES - Regimen: Single
# Type: toxicity, organism-based, Sprague-Dawley
# Parameters: regimen Single, gender Male, age 6 weeks
# Settings: in vivo, po, 1000 mg/kg, route gavage, dose level Middle; for APTT / Bas / Eos / Fbg / Hb / Ht / Lym / MCH / MCHC / MCV / Mono / Neu / Plat / RBC / Ret / WBC: tissue Blood; for KIDNEY_L / KIDNEY_R / KIDNEY_TOTAL: tissue Kidney; for LIVER: tissue Liver; for ALP / ALT / AST / BUN / CRE / Ca / Cl / DBIL / GLC / IP / K / LDH / Na / PL / RALB / TBIL / TC / TG / TP / gamma-GTP: tissue Plasma
smiles,measurement,setting,value
CC(=O)Oc1ccccc1C(=O)O [ASPIRIN],TERMINAL_BW,3 h,217.1 g
same,APTT,3 h,19 s
same,Bas,3 h,0%
same,Eos,3 h,1%
same,Fbg,3 h,217.4 mg/dL
same,Hb,3 h,13.6 g/dL
same,Ht,3 h,37.9%
same,Lym,3 h,69.4%
same,MCH,3 h,21.9 pg
same,MCHC,3 h,35.9%
same,MCV,3 h,60.8 fL
same,Mono,3 h,2.8%
same,Neu,3 h,25.4%
same,Plat,3 h,121 x10_4/uL
same,RBC,3 h,624.8 x10_4/ul
same,Ret,3 h,8%
same,WBC,3 h,72.1 x10_2/uL
same,KIDNEY_L,3 h,0.9 g
same,KIDNEY_R,3 h,1 g
same,KIDNEY_TOTAL,3 h,1.9 g
same,LIVER,3 h,8.8 g
same,ALP,3 h,835 IU/L
same,ALT,3 h,44.4 IU/L
same,AST,3 h,79 IU/L
same,BUN,3 h,15.8 mg/dL
same,CRE,3 h,0.4 mg/dL
same,Ca,3 h,8.7 mg/dL
same,Cl,3 h,104 meq/L
same,DBIL,3 h,0.06 mg/dL
same,GLC,3 h,203.8 mg/dL
same,IP,3 h,8.3 mg/dL
same,K,3 h,3.4 meq/L
same,LDH,3 h,205.8 IU/L
same,Na,3 h,141 meq/L
same,PL,3 h,88.8 mg/dL
same,RALB,3 h,3.4 g/dL
same,TBIL,3 h,0.1 mg/dL
same,TC,3 h,54.6 mg/dL
same,TG,3 h,26.2 mg/dL
same,TP,3 h,5.5 g/dL
same,gamma-GTP,3 h,1 IU/L
same,TERMINAL_BW,6 h,218.6 g
same,APTT,6 h,19.9 s
same,Bas,6 h,0%
same,Eos,6 h,0.6%
same,Fbg,6 h,233.4 mg/dL
same,Hb,6 h,13.7 g/dL
same,Ht,6 h,37.9%
same,Lym,6 h,66%
same,MCH,6 h,21.5 pg
same,MCHC,6 h,36.2%
same,MCV,6 h,59.5 fL
same,Mono,6 h,3.4%
same,Neu,6 h,29%
same,Plat,6 h,132.5 x10_4/uL
same,RBC,6 h,637.2 x10_4/ul
same,Ret,6 h,7.9%
same,WBC,6 h,97.1 x10_2/uL
same,KIDNEY_L,6 h,1 g
same,KIDNEY_R,6 h,0.9 g
same,KIDNEY_TOTAL,6 h,1.9 g
same,LIVER,6 h,8.5 g
same,ALP,6 h,820.8 IU/L
same,ALT,6 h,35.4 IU/L
same,AST,6 h,78.2 IU/L
same,BUN,6 h,14.8 mg/dL
same,CRE,6 h,0.4 mg/dL
same,Ca,6 h,8.3 mg/dL
same,Cl,6 h,104.2 meq/L
same,DBIL,6 h,0.056 mg/dL
same,GLC,6 h,209.4 mg/dL
same,IP,6 h,8.1 mg/dL
same,K,6 h,3.3 meq/L
same,LDH,6 h,236.6 IU/L
same,Na,6 h,140.2 meq/L
same,PL,6 h,108 mg/dL
same,RALB,6 h,3.6 g/dL
same,TBIL,6 h,0.098 mg/dL
same,TC,6 h,68.6 mg/dL
same,TG,6 h,16.8 mg/dL
same,TP,6 h,5.7 g/dL
same,gamma-GTP,6 h,1 IU/L
same,TERMINAL_BW,9 h,217.1 g
same,APTT,9 h,21.6 s
same,Bas,9 h,0%
same,Eos,9 h,1%
same,Fbg,9 h,232.4 mg/dL
same,Hb,9 h,13.7 g/dL
same,Ht,9 h,38.1%
same,Lym,9 h,69.4%
same,MCH,9 h,21.4 pg
same,MCHC,9 h,35.8%
same,MCV,9 h,59.7 fL
same,Mono,9 h,2.4%
same,Neu,9 h,27%
same,Plat,9 h,128.3 x10_4/uL
same,RBC,9 h,638.6 x10_4/ul
same,Ret,9 h,7.8%
same,WBC,9 h,93.3 x10_2/uL
same,KIDNEY_L,9 h,1 g
same,KIDNEY_R,9 h,0.9 g
same,KIDNEY_TOTAL,9 h,1.9 g
same,LIVER,9 h,7.5 g
same,ALP,9 h,903.8 IU/L
same,ALT,9 h,33.2 IU/L
same,AST,9 h,79.8 IU/L
same,BUN,9 h,13.2 mg/dL
same,CRE,9 h,0.4 mg/dL
same,Ca,9 h,8.5 mg/dL
same,Cl,9 h,106.4 meq/L
same,DBIL,9 h,0.05 mg/dL
same,GLC,9 h,202.4 mg/dL
same,IP,9 h,7.7 mg/dL
same,K,9 h,3.2 meq/L
same,LDH,9 h,227.2 IU/L
same,Na,9 h,140.6 meq/L
same,PL,9 h,102.4 mg/dL
same,RALB,9 h,3.5 g/dL
same,TBIL,9 h,0.098 mg/dL
same,TC,9 h,62.8 mg/dL
same,TG,9 h,9.2 mg/dL
same,TP,9 h,5.5 g/dL
same,gamma-GTP,9 h,1.2 IU/L
same,TERMINAL_BW,24 h,217 g
same,APTT,24 h,29.4 s
same,Bas,24 h,0.4%
same,Eos,24 h,1%
same,Fbg,24 h,225 mg/dL
same,Hb,24 h,14.4 g/dL
same,Ht,24 h,39.3%
same,Lym,24 h,72%
same,MCH,24 h,22.1 pg
same,MCHC,24 h,36.6%
same,MCV,24 h,60.4 fL
same,Mono,24 h,2.2%
same,Neu,24 h,24.2%
same,Plat,24 h,131.6 x10_4/uL
same,RBC,24 h,650.8 x10_4/ul
same,Ret,24 h,7.1%
same,WBC,24 h,89.6 x10_2/uL
same,KIDNEY_L,24 h,0.9 g
same,KIDNEY_R,24 h,0.9 g
same,KIDNEY_TOTAL,24 h,1.9 g
same,LIVER,24 h,8.1 g
same,ALP,24 h,933.8 IU/L
same,ALT,24 h,38 IU/L
same,AST,24 h,110 IU/L
same,BUN,24 h,14.8 mg/dL
same,CRE,24 h,0.4 mg/dL
same,Ca,24 h,8.7 mg/dL
same,Cl,24 h,105.6 meq/L
same,DBIL,24 h,0.052 mg/dL
same,GLC,24 h,214 mg/dL
same,IP,24 h,7.3 mg/dL
same,K,24 h,3.5 meq/L
same,LDH,24 h,227.6 IU/L
same,Na,24 h,140.8 meq/L
same,PL,24 h,75.4 mg/dL
same,RALB,24 h,3.5 g/dL
same,TBIL,24 h,0.1 mg/dL
same,TC,24 h,40.2 mg/dL
same,TG,24 h,23.4 mg/dL
same,TP,24 h,5.7 g/dL
same,gamma-GTP,24 h,1.6 IU/L
